The experiment deals with 3T3-L1 adipocytes. The experiment can be described thus: Adipogenesis in 3T3-L1 adipocytes cultured with inhibitors of intracellular signaling pathways (AdipoRed). The experiment is classed as cell-based, mouse. The conditions noted are these: added two days after differentiation, cultured two days; genistein 1 or 10 μM, Wortmannin 10 or 100 nM, PD98059 1 or 10 μM, Bay 11-7082 1 or 10 nM; FIG. 6A-D. How it is done:
In yet another experiment, to search for the involvement of intracellular signaling factors, the culture fluid was substituted with a culture fluid containing DMEM, which contained 10% FBS and insulin (10 μg/ml), and a vehicle (1% ethanol) or DHMBA (1 or 10 μM) two days after the differentiation culture. The cells were cultured for another two days in a culture fluid containing signaling inhibitory factors, such as genistein (1 or 10 μM), Wortmannin (10 or 100 nM), PD98059 (1 or 10 μM), or Bay 11-7082 (1 or 10 nM). After the cell culture, the amount of intracellular lipid (triglyceride) formation was quantified using AdipoRed Assay Reagent (Lonza, Walkersville, MD, USA) [19 to 21]. Fluorescence was measured at an excitation of 485 nm and an emission of 570 nm using a 96-well plate reader (μQuant, Bio-Tek Instruments).

Each structure is given as a SMILES string.

Take `COC[C@H]1OC(=O)c2coc3c2[C@@]1(C)C1=C(C3=O)[C@@H]2CCC(=O)[C@@]2(C)C[C@H]1OC(C)=O` [Wortmannin, reference compound]: the “Lipogenesis/adipogenesis with the inhibitor alone” value is on record as “inhibited”.

As to `Cc1ccc(S(=O)(=O)/C=C/C#N)cc1` [Bay 11-7082, reference compound], the “Lipogenesis/adipogenesis with the inhibitor alone” value was “inhibited”.

Consider `O=c1c(-c2ccc(O)cc2)coc2cc(O)cc(O)c12` [genistein, reference compound], for which the “Lipogenesis/adipogenesis with the inhibitor alone” value is reported as “not altered”.

Turning to `COc1cccc(-c2cc(=O)c3ccccc3o2)c1N` [PD98059, reference compound], the “Lipogenesis/adipogenesis with the inhibitor alone” value is on record as “inhibited”.

Source of the values: US20260283977A1, “ADIPOCYTE GROWTH INHIBITOR” (WATANABE OYSTER LABORATORY CO., LTD., priority 2023, published 2026).
